Assay results taken from publication PMC11845477, “Exploring the principles behind antibiotics with limited resistance” (Nature Communications, 2025).
Read-outs that look alike come from different tables or passages of the source.

Assays:
[1] = system: A. baumannii ATCC 17978 (SEN) and A. baumannii ATCC BAA-1605 (MDR); assay: Frequency-of-resistance (FoR) assay, relative MIC of mutants; format: cell-based, Acinetobacter baumannii; settings: for Relative MIC: Acinetobacter baumannii ATCC 17978 (AB-SEN); for MIC: Acinetobacter baumannii, read-out: MIC of evolved line, Acinetobacter baumannii ATCC 17978 (AB-SEN)
Procedure: The susceptibility of antibiotics to resistance development was evaluated in two strains of each bacterial species: a multidrug-resistant strain and an antibiotic-sensitive strain of Escherichia coli, Klebsiella pneumoniae, Acinetobacter baumannii, and Pseudomonas aeruginosa. To explore first-step resistance, we previously used a standard protocol for spontaneous frequency-of-resistance analysis (FoR assay) at multiple concentrations of each antibiotic[10],[28],[31]–[33]. […] For all other combinations, approximately 10^10 bacterial cells were exposed to one of each antibiotic on agar plates for two days at concentrations where the given strain is susceptible. We examined resistance levels by contrasting the minimum inhibitory concentration (MICs) of the mutated strains to the original wild-type bacterial strain (i.e., relative MIC).
To estimate the frequency of spontaneous mutations that confer resistance in a microbial population, we conducted a frequency of resistance (FoR) assay following established protocols[10],[31]–[33]. […] Prior to plating, bacteria were grown overnight in MHB medium at 37 °C and 250 RPM, then centrifuged and washed in MHB. All experiments were performed in triplicate, and plates were incubated at 37 °C for 48 hours. Total colony-forming units (CFUs) were determined by plating appropriate dilutions onto antibiotic-free MHB agar. Resistance frequencies were calculated by dividing the number of resistant colonies by the initial viable cell count. From the plates with the highest antibiotic concentration, ten colonies were selected for MIC determination and whole-genome sequencing.
(§1) A robotic liquid handling system was used to automatically prepare a 11 to 16-step serial dilution in 384-well microtiter plates (Greiner). A final concentration of 5 × 10^5 bacterial cells per mL were inoculated into each well containing 60 µL MHB medium. Bacterial cultures were incubated at 37 °C with continuous shaking (Infors shaker, 900 rpm with 3 mm throw) for 18 hours (2 replicates from each). Cell growth was monitored by measuring the optical density (OD600 values, using Biotek Synergy microplate reader). MIC was defined as the antibiotic concentration of complete growth inhibition (i.e., OD600 < 0.05). Relative MIC was calculated as follows:1 relativeMIC=MICevolved/MICancestor […]
Supplementary Figure 3. Resistance levels following the frequency of resistance assay across bacterial strains. The level of resistance was measured as the fold change in relative MIC between evolved and ancestral strains. Data are grouped by bacterial strain (A. baumannii (AB), E. coli (EC), K. pneumoniae (KP), and P. aeruginosa (PA)) and categorized as either multidrug-resistant (MDR) or sensitive (SEN). Each data point represents a laboratory evolved line, and boxplots show the median, first and third quartiles, with whiskers indicating the 5th and 95th percentiles. […]
analysis was performed using two-sided Dunn’s post-hoc test with Benjamini-Hochberg correction for multiple comparisons (**/ * indicates p < 0.01/ 0.05). For detailed information on antibiotic and bacterial species, see Supplementary Table 1. For mode of action groups, refer to Table 1. Source data are provided as a Source Data file.

[2] = system: K. pneumoniae ATCC 10031 (SEN) and K. pneumoniae ATCC 700603 (MDR); assay: Adaptive laboratory evolution (ALE), relative MIC of evolved lines; format: cell-based, Klebsiella pneumoniae
From the text: Using the same set of bacterial strains, we initiated adaptive laboratory evolution with the aim to maximize the level of antibiotic resistance in the populations achieved during a longer, but fixed time period.
An established protocol for adaptive laboratory evolution[46],[73] was followed to propagate populations with the highest resistance levels. Starting with an antibiotic concentration that caused approximately 50% growth inhibition, ten parallel populations for each antibiotic-ancestor strain combination were grown for 72 hours at 37 °C with continuous shaking (300 RPM). MHB broth medium was used unless stated otherwise. After each incubation, 20 µl of each culture was transferred to four new wells containing fresh medium with increasing antibiotic concentrations (0.5×, 1×, 1.5×, and 2.5× the previous concentration) in a chessboard layout to monitor potential cross-contamination. Growth was monitored by measuring OD600 using a Biotek Synergy 2 microplate reader, and only populations grown in the highest drug concentration with an OD600 > 0.2 were transferred further.
as §1
Supplementary Figure 4. Resistance levels following adaptive laboratory evolution across bacterial strains. The level of resistance was measured as the fold change in relative MIC between evolved and ancestral strains after ~60 days of adaptive laboratory evolution. Data are grouped by bacterial strain (A. baumannii (AB), E. coli (EC), K. pneumoniae (KP), and P. aeruginosa (PA)) and categorized as either multidrug-resistant (MDR) or sensitive (SEN). Each data point represents a laboratory evolved line, and boxplots show the median, first and third quartiles, with whiskers indicating the 5th and 95th percentiles.
Statistical analysis was performed using two-sided Dunn’s post-hoc test with Benjamini-Hochberg correction for multiple comparisons (****/ ***/ **/ * indicates p < 0.0001/ 0.001/ 0.01/ 0.05). For detailed information on antibiotic and bacterial species, see Supplementary Table 1. For mode of action groups, refer to Table 1. Source data are provided as a Source Data file.

## CN[C@@H]1[C@@H](O[C@H]2O[C@H](CO)[C@@H](N)[C@H](O)[C@H]2O)OC2C[C@@H](N)[C@@H](O[C@H]3[C@H](O)[C@@H](O)[C@H](N)C[C@@H]3N)OC2[C@@H]1O (some centres unmarked) [Apramycin]
[1]; evolved line 1 versus ancestor
  Relative MIC: 8
[1]; evolved line 2 versus ancestor
  Relative MIC: 16
[1]; evolved line 3 versus ancestor
  Relative MIC: 8
[1]; evolved line 1
  MIC: 32 µg/mL
[1]; evolved line 2
  MIC: 64 µg/mL
[1]; evolved line 3
  MIC: 32 µg/mL
[2]; KP-MDR (ATCC 700603), evolved line 1, MIC of evolved line / MIC of ancestor
  Relative MIC: 8
[2]; KP-MDR (ATCC 700603), evolved line 2, MIC of evolved line / MIC of ancestor
  Relative MIC: 16
[2]; KP-MDR (ATCC 700603), evolved line 3, MIC of evolved line / MIC of ancestor
  Relative MIC: 16
[2]; KP-MDR (ATCC 700603), evolved line 4, MIC of evolved line / MIC of ancestor
  Relative MIC: 4
[2]; KP-MDR (ATCC 700603), evolved line 5, MIC of evolved line / MIC of ancestor
  Relative MIC: 16
[2]; KP-MDR (ATCC 700603), evolved line 6, MIC of evolved line / MIC of ancestor
  Relative MIC: 8
[2]; KP-MDR (ATCC 700603), evolved line 7, MIC of evolved line / MIC of ancestor
  Relative MIC: 4
[2]; KP-MDR (ATCC 700603), evolved line 8, MIC of evolved line / MIC of ancestor
  Relative MIC: 8
[2]; KP-MDR (ATCC 700603), evolved line 9, MIC of evolved line / MIC of ancestor
  Relative MIC: 16
[2]; KP-MDR (ATCC 700603), evolved line 10, MIC of evolved line / MIC of ancestor
  Relative MIC: 8
[2]; KP-MDR (Klebsiella pneumoniae ATCC 700603), evolved line 1 adapted to the named antibiotic
  Relative MIC (log10): 0.9031
[2]; KP-MDR (Klebsiella pneumoniae ATCC 700603), evolved line 2 adapted to the named antibiotic
  Relative MIC (log10): 1.204
[2]; KP-MDR (Klebsiella pneumoniae ATCC 700603), evolved line 3 adapted to the named antibiotic
  Relative MIC (log10): 1.204
[2]; KP-MDR (Klebsiella pneumoniae ATCC 700603), evolved line 8 adapted to the named antibiotic
  Relative MIC (log10): 0.9031
[2]; KP-MDR (Klebsiella pneumoniae ATCC 700603), evolved line 9 adapted to the named antibiotic
  Relative MIC (log10): 1.204
[2]; KP-SEN (ATCC 10031), evolved line 2, MIC of evolved line / MIC of ancestor
  Relative MIC: 64
[2]; KP-SEN (ATCC 10031), evolved line 3, MIC of evolved line / MIC of ancestor
  Relative MIC: 32
[2]; KP-SEN (ATCC 10031), evolved line 5, MIC of evolved line / MIC of ancestor
  Relative MIC: 64
[2]; KP-SEN (ATCC 10031), evolved line 6, MIC of evolved line / MIC of ancestor
  Relative MIC: 64
[2]; KP-SEN (ATCC 10031), evolved line 8, MIC of evolved line / MIC of ancestor
  Relative MIC: 64
[2]; KP-SEN (ATCC 10031), evolved line 9, MIC of evolved line / MIC of ancestor
  Relative MIC: 64
[2]; KP-SEN (ATCC 10031), evolved line 10, MIC of evolved line / MIC of ancestor
  Relative MIC: 128
[2]; KP-SEN (Klebsiella pneumoniae ATCC 10031), evolved line 2 adapted to the named antibiotic
  Relative MIC (log10): 1.806
[2]; KP-SEN (Klebsiella pneumoniae ATCC 10031), evolved line 5 adapted to the named antibiotic
  Relative MIC (log10): 1.806
[2]; KP-SEN (Klebsiella pneumoniae ATCC 10031), evolved line 6 adapted to the named antibiotic
  Relative MIC (log10): 1.806
[2]; KP-SEN (Klebsiella pneumoniae ATCC 10031), evolved line 8 adapted to the named antibiotic
  Relative MIC (log10): 1.806
[2]; KP-SEN (Klebsiella pneumoniae ATCC 10031), evolved line 10 adapted to the named antibiotic
  Relative MIC (log10): 2.107
[2]; Klebsiella pneumoniae ATCC 10031 (KP-SEN), evolved line 2
  Relative MIC: 64
[2]; Klebsiella pneumoniae ATCC 10031 (KP-SEN), evolved line 3
  Relative MIC: 32
[2]; Klebsiella pneumoniae ATCC 10031 (KP-SEN), evolved line 5
  Relative MIC: 64
[2]; Klebsiella pneumoniae ATCC 10031 (KP-SEN), evolved line 6
  Relative MIC: 64
[2]; Klebsiella pneumoniae ATCC 10031 (KP-SEN), evolved line 8
  Relative MIC: 64
[2]; Klebsiella pneumoniae ATCC 10031 (KP-SEN), evolved line 9
  Relative MIC: 64
[2]; Klebsiella pneumoniae ATCC 10031 (KP-SEN), evolved line 10
  Relative MIC: 128
[2]; Klebsiella pneumoniae ATCC 700603 (KP-MDR), evolved line 1
  Relative MIC: 8
[2]; Klebsiella pneumoniae ATCC 700603 (KP-MDR), evolved line 2
  Relative MIC: 16
[2]; Klebsiella pneumoniae ATCC 700603 (KP-MDR), evolved line 3
  Relative MIC: 16
[2]; Klebsiella pneumoniae ATCC 700603 (KP-MDR), evolved line 4
  Relative MIC: 4
[2]; Klebsiella pneumoniae ATCC 700603 (KP-MDR), evolved line 5
  Relative MIC: 16
[2]; Klebsiella pneumoniae ATCC 700603 (KP-MDR), evolved line 6
  Relative MIC: 8
[2]; Klebsiella pneumoniae ATCC 700603 (KP-MDR), evolved line 7
  Relative MIC: 4
[2]; Klebsiella pneumoniae ATCC 700603 (KP-MDR), evolved line 8
  Relative MIC: 8
[2]; Klebsiella pneumoniae ATCC 700603 (KP-MDR), evolved line 9
  Relative MIC: 16
[2]; Klebsiella pneumoniae ATCC 700603 (KP-MDR), evolved line 10
  Relative MIC: 8
